Experimental data reported in US20250052985A1, “SYSTEM AND METHOD FOR QUANTITATIVE PHASE IMAGING FOR MULTI-PARAMETRIC SCREENING OF TUMOR THERAPY RESPONSE” (UNIVERSITY OF UTAH RESEARCH FOUNDATION, priority 2023, published 2025).

Assays:
[1] = tested on: primary tumor cells (Patient #1); assay: QPI on primary cells after two-week expansion, Patient #1; format: cell-based; details: Patient #1
Method: In some embodiments, the QPI microscope system 110 applies multiparametric QPI to primary cells from two clinical samples stored in cell bank at, for example, the Huntsman Cancer Institute plated after thawing from liquid nitrogen and CD45+ depleted to reduce the number of immune cells, as shown in FIG. 26.
For example, the primary cells are plated as a 2D monolayer in Clever's complete medium in a 96 well plate (e.g., the well-plate 105) and are allowed to acclimate to cell culture conditions for 18 h prior to dosing with treatments assigned to each patient by a physician. […] The image 3600 is a QPI image of primary cells from a direct from thaw patient derived sample. […] The graph 3610 is a histogram of cell mass used to computationally filter, using the electronic controller 155, for low mass cells (shown in red in the image 3600 and the graph 3605). By using a cutoff between the peaks at, for example, 72 pg, low mass cells can be isolated that are not growing and remove such cells from analysis. […] Using this cutoff, the electronic controller 155 measures the dose response for cells in each condition to determine the EC50 and DoR for each condition studied for the primary cells, as shown in the graph 3615. The graph 3615 is a dose response plot for primary cells treated with therapies assigned to the patient by a physician. […] In some embodiments, the electronic controller 155 determines a drug response in cells from patient derived samples. For example, the electronic controller 155 determines the drug response in therapy treatment samples from patient derived samples.
In some embodiments, both samples are expanded from primary cells in 2D culture using optimized ex vivo culture conditions for 2 weeks, changing media every 3 days to further purify the tumor cells, as shown in a workflow 3700 of FIG. 27.

[2] = tested on: HCI-038 PDxO cells; assay: QPI on cells from patient-derived organoid HCI-038 (bone metastasis); format: cell-based; details: HCI-038, bone metastasis
Method: In some embodiments, the QPI microscope system 110 performs QPI on cells from patient-derived organoids and direct-from-patient samples. For example, the electronic controller 155 analyzes data on cells from a set of 5 organoids representing samples collected from two patients, as illustrated by a workflow 3400 in FIG. 24. The workflow 3400 is an experiment workflow illustrating how assays are analyzed by the QPI microscope system 110. In some embodiments, the QPI microscope system 110 images cells for 48 h, and uses an automatic segmentation algorithm, via the electronic controller 155, to identify individual cells from background, as shown in images 3405 and 3410 of FIG. 24. […] The electronic controller 155 determines the mass of each cell by summing the cell mass over the segmented area. In some embodiments, plots of mass over time reveal single cell growth rates, as shown by graph 3415 of FIG. 24. The graph 3415 is a mass vs. time plot showing DMSO treated cells growing cells at a typical location. Cells outlined in green are shown as green on the plot, other growing cells are shown in purple. […] In some embodiments, EC50 measured by the QPI microscope system 110 is strongly concordant with gold standard techniques such as CTG over 27 conditions (e.g., 9 compounds, 3 breast cancer cell lines). […]

SMILES | EC50 compared with eribulin [1] | response compared with primary lesion model [2]
COc1cccc2c1C(=O)c1c(O)c3c(c(O)c1C2=O)C[C@@](O)(C(=O)CO)C[C@@H]3O[C@H]1C[C@H](N)[C@H](O)[C@H](C)O1 [Doxorubicin] | lower EC50 than eribulin | 
CC[C@]1(O)C[C@@H]2CN(CCc3c([nH]c4ccccc34)[C@@](C(=O)OC)(c3cc4c(cc3OC)N(C)[C@H]3[C@@](O)(C(=O)OC)[C@H](OC(C)=O)[C@]5(CC)C=CCN6CC[C@]43[C@@H]65)C2)C1 [Vinblastine] |  | stronger response
